Patent US7105654B1, “Ethylene receptor gene from Glycine max and its use” (Monsanto Technology LLC, priority 2002, dated 2006)

System: soybean (Glycine max) seedlings
Assay: ACC insensitivity assay (hypocotyl length of dark-grown seedlings)
Assay type: in vivo
Settings: nontransformed soybean variety Asgrow A4922, grown in the dark; without ACC greater than 70 millimeters
Procedure: FIG. 4. R1 seeds from pMON47103, pMON47104, and pMON47108 were screened by an ACC insensitivity assay. […] Hypocotyl length was measured after six days and the average value presented.
Seeds were germinated in growth pouches (Mega International, Minneapolis, Minn.) containing 25 milliliters of 25 micromolar 1-aminocyclopropane-1-carboxylic acid (ACC) (Sigma Chemical Company) or in tissue culture boxes containing agar, water, and 20 micromolar ACC. Seedlings were kept in the dark for seven days. Growth of hypocotyl and root were scored in comparison to seedlings grown in water with all other conditions identical. An alternative protocol was used to measure growth in a solid matrix. Vermiculite was placed in a 4″×4″ plastic pot to ½″ below the rim. Twelve seeds were placed in each pot beneath the surface of the vermiculite. A solution of 500 micromolar ACC in distilled water was used to saturate the vermiculite. The pots were placed in a tray with additional solution to ensure a supply during incubation. The plants were incubated in a dark ventilated cabinet at room temperature for six days. On the sixth day, seedlings were removed from the vermiculite and rinsed. The hypocotyl length (from first lateral root to the bend of the apical hook) was measured and compared against wild type plants grown in the same environmental condition. […]

NC1(C(=O)O)CC1 [ACC, 1-aminocyclopropane-1-carboxylic acid]
average height of seedlings in response to applied ACC: less than 20 millimeters
